These results are taken from ChEMBL document CHEMBL5505967, “Design and synthesis of 4-amino-2',4'-dihydroxyindanone derivatives as potent inhibitors of tyrosinase and melanin biosynthesis in human melanoma cells” (Eur J Med Chem, 2024).

One may read the IC50 as the concentration that gives 50% inhibition. The low end stands for greater potency in that assay, the high end for weaker potency in that assay. As a reminder, the CC50 is the concentration that lowers cell viability or growth by half. Low readings indicate greater toxicity to the cells, high ones lower toxicity to the cells.

The target in one assay is Mushroom tyrosinase (Agaricus bisporus, UniProt O42713+Q00024+C7FF04+C7FF05). The assay can be described thus: Inhibition of mushroom tyrosinase using L-DOPA as substrate preincubated for 10 mins followed by substrate addition measured after 10 mins by absorbance based spectramax microplate reader assay. Type of assay: protein assay.
In assay [1] the test system is MNT-1. Description: cells. As to conditions: Homo sapiens, MNT-1, 96 h.
Description: Inhibition of melanogenesis in human MNT-1 cells incubated for 4 days
The subject of assay [2] is MNT-1. Description: cells. As to conditions: Homo sapiens, MNT-1, 96 h. This is another data set of the same source.
Description: Cytotoxicity against human MNT-1 cells incubated for 4 days by resazurin assay
Assay [3] has as its system MNT-1. Description: cells. As to conditions: Homo sapiens, MNT-1, 336 h.
Description: Inhibition of melanogenesis in human MNT-1 cells incubated for 14 days
Assay [4] relates to MNT-1. Description: cells. As to conditions: Homo sapiens, MNT-1, 336 h. This is another data set of the same source.
Description: Cytotoxicity against human MNT-1 cells incubated for 14 days by resazurin assay
Assay [5] has as its target T1, Tyrosinase (Homo sapiens, UniProt P14679).
T1 sequence (P14679 whole entry): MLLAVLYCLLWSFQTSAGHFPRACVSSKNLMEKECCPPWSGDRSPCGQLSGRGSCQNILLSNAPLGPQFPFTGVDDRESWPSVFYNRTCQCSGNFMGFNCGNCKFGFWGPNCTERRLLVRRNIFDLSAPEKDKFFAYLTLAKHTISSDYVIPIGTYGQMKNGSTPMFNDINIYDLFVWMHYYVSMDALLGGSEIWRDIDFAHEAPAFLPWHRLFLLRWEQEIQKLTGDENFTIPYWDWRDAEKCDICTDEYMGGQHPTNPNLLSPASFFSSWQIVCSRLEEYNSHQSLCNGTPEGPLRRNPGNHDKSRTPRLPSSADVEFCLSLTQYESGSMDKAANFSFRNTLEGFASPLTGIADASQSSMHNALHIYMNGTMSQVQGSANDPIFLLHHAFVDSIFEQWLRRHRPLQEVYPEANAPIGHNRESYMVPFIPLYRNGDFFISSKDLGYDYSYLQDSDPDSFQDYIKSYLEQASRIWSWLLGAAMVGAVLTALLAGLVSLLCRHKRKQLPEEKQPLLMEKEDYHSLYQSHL
The assay can be described thus: Inhibition of His-tagged human tyrosinase expressed in HEK293 cells using L-DOPA as substrate by microplate reader analysis.

Assay [6] deals with T1, Tyrosinase.
Description: Inhibition of tyrosinase in human MNT-1 cells using L-DOPA as substrate preincubated for 10 mins followed by substrate addition measured after 180 mins by absorbance based spectramax microplate reader assay

Take `N#Cc1cccc2c1C/C(=C\c1ccc(O)cc1O)C2=O`: the IC50 at Mushroom tyrosinase was 0.26 µM.
In the case of `CC(C)C(=O)Nc1cccc2c1C/C(=C\c1ccc(O)cc1O)C2=O`, the IC50 is 7 µM with MNT-1 [1], 2.1 µM in the assay on MNT-1 [3] and 0.06 µM against Mushroom tyrosinase. The CC50 was > 100 µM in the assay on MNT-1 [2] and 62 µM in the assay with MNT-1 [4].
Consider `Oc1cccc(O)c1` [RESORCINOL], for which the IC50 on Tyrosinase [5] is > 3000 µM.
Molecule `COc1cccc2c1C/C(=C\c1ccc(O)cc1O)C2=O` came in with an IC50 against Mushroom tyrosinase of 0.16 µM.
In the case of `CCC(=O)Nc1cccc2c1C/C(=C\c1ccc(O)cc1O)C2=O`, the results for the IC50 in the assay on MNT-1 [1], with MNT-1 [3] and on Mushroom tyrosinase were 8 µM, 3.1 µM and 0.014 µM, respectively. The values for the CC50 with MNT-1 [2] and in the assay with MNT-1 [4] were > 100 µM and 65 µM, respectively.
On to `NCC(=O)Nc1cccc2c1C/C(=C\c1ccc(O)cc1O)C2=O`, for which the IC50 in the assay on MNT-1 [1] was 29 µM; in the assay with MNT-1 [3] it was 12 µM; on Mushroom tyrosinase it was 0.39 µM. Also, the 50% cytotoxic concentration (CC50) in the assay with MNT-1 [2] and with MNT-1 [4] was > 100 µM each time.
On Mushroom tyrosinase, `O=C1/C(=C/c2ccc(O)cc2O)Cc2c(Br)cccc21` gave an IC50 of 0.086 µM.
Take `O=C1/C(=C/c2ccc(O)cc2O)Cc2c1cccc2C(F)(F)F`: the results for the IC50 at Tyrosinase [6] and on Mushroom tyrosinase were > 100 µM and 0.18 µM, respectively.
With `Nc1cccc2c1C/C(=C\c1ccc(O)cc1O)C2=O`, the IC50 with MNT-1 [1] is 3.8 µM; in the assay with MNT-1 [3] it was 0.53 µM; against Mushroom tyrosinase, 0.027 µM. Moreover, the CC50 was > 100 µM in the assay with MNT-1 [2] and 66 µM in the assay with MNT-1 [4].
In turn, `O=C(Nc1cccc2c1C/C(=C\c1ccc(O)cc1O)C2=O)c1ccccc1` showed an IC50 against Mushroom tyrosinase of 0.1 µM.
Still for that read-out and setting: the same measure for `CN(C)c1cccc2c1C/C(=C\c1ccc(O)cc1O)C2=O`: 0.083 µM.
Consider `O=C1/C(=C/c2ccc(O)cc2O)Cc2c1cccc2[N+](=O)[O-]`, for which the IC50 at Tyrosinase [6] was > 100 µM; against Mushroom tyrosinase, 0.16 µM.
`CNc1cccc2c1C/C(=C\c1ccc(O)cc1O)C2=O`: the half-maximal inhibitory concentration (IC50) with MNT-1 [1] came out at 3.2 µM; in the assay with MNT-1 [3] it was 0.77 µM; against Mushroom tyrosinase it was 0.014 µM. In addition, the CC50 in the assay on MNT-1 [2] was 78 µM; in the assay with MNT-1 [4] it was 29 µM.
For `CC(C)C(=O)Nc1nc(-c2ccc(O)cc2O)cs1`, the IC50 on Tyrosinase [6] is 0.17 µM; in the assay with MNT-1 [1], 10 µM; in the assay on MNT-1 [3] it was 0.28 µM. For the same molecule, the results for the half-maximal cytotoxic concentration (CC50) with MNT-1 [2] and in the assay with MNT-1 [4] were > 100 µM and 36 µM, respectively.
The molecule `CC(C)[C@@H](N)C(=O)Nc1cccc2c1C/C(=C\c1ccc(O)cc1O)C2=O` showed an IC50 at Mushroom tyrosinase of 0.46 µM.
`O=C1/C(=C/c2ccc(O)cc2O)Cc2c(F)cccc21` displayed an IC50 on Mushroom tyrosinase of 0.15 µM.
In the case of `C[C@H](N)C(=O)Nc1cccc2c1C/C(=C\c1ccc(O)cc1O)C2=O`, the results for the IC50 with MNT-1 [1], in the assay with MNT-1 [3] and at Mushroom tyrosinase were 19 µM, 4.6 µM and 0.6 µM, respectively. In addition, the figures for the CC50 in the assay on MNT-1 [2] and in the assay with MNT-1 [4] were > 100 µM and 94 µM, respectively.
For `CC(=O)Nc1cccc2c1C/C(=C\c1ccc(O)cc1O)C2=O`, the IC50 with MNT-1 [1] was 19 µM; in the assay with MNT-1 [3], 3.3 µM; at Mushroom tyrosinase, 0.009 µM. Also, the figures for the CC50 in the assay on MNT-1 [2] and in the assay with MNT-1 [4] were > 100 µM and 67 µM, respectively.
The molecule `O=C1/C(=C/c2ccc(O)cc2O)Cc2c(O)cccc21` registered a half-maximal inhibitory concentration (IC50) against Mushroom tyrosinase of 0.09 µM.
Regarding `Cc1cccc2c1C/C(=C\c1ccc(O)cc1O)C2=O`, the IC50 with MNT-1 [1] was determined as 21 µM; with MNT-1 [3] it was 4.1 µM; on Mushroom tyrosinase it was 0.019 µM. Besides, the CC50 with MNT-1 [2] is > 100 µM; in the assay with MNT-1 [4] it was 61 µM.
For `CCCC(=O)Nc1cccc2c1C/C(=C\c1ccc(O)cc1O)C2=O`, the IC50 in the assay on MNT-1 [1] is 24 µM; with MNT-1 [3], 2 µM; at Mushroom tyrosinase it was 0.006 µM. Besides, the CC50 in the assay with MNT-1 [2] is > 100 µM; in the assay on MNT-1 [4], 77 µM.
